Results on three molecules are retold here after patent publication US8188086B2, “Specific salt, anhydrous and crystalline form of a dihydropteridione derivative” (Boehringer Ingelheim International GmbH, priority 2006, dated 2012).

Format in all cases: physicochemical
Data set [1] can be described thus: Stability of hydrate / anhydrous form (humidity, ambient conditions, heating). The source says:
Under standard conditions the crystalline trihydrochloride salt form of N-[trans-4-[4-(cyclopropylmethyl)-1-piperazinyl]cyclohexyl]-4-[[(7R)-7-ethyl-5,6,7,8-tetrahydro-5-methyl-8-(1-methylethyl)-6-oxo-2-pteridinyl]amino]-3-methoxy-benzamide according to the invention is present in the form of an hydrate and is obtainable after drying with a changing stoichiometry (1-3 water equivalents). The hydrate with a stoichiometry close to a trihydrate seems to be the stable hydrated form under ambient conditions and can be obtained after conditioning of the dried material. The crystal water is tightly bound.
At about 260° C. another strong endothermic peak can be observed in the DSC-diagram, indicating melting of the dehydrated form. The onset of this melting event is at about 245° C. Melting occurs, however, under decomposition, indicated by the accompanied weight loss upon melting. When performing a TG-IR coupling experiment, it can be shown that hydrochloric acid is released upon decomposition. The respective anhydrous form, obtained by heating a sample up to 140° C. is not stable.

Data set [2] is described as follows: Solid state stability under harsh stress conditions. The source says:
No significant decomposition or impurities (Σ<2.4%) can be observed under the applied stress conditions.

A short description of data set [3]: Solubility in aqueous media.
A short description of data set [4]: physchem. How it is done:
This hydrated form of the trihydrochloride salt of the compound N-[trans-4-[4-(cyclopropylmethyl)-1-piperazinyl]cyclohexyl]-4-[[(7R)-7-ethyl-5,6,7,8-tetrahydro-5-methyl-8-(1-methylethyl)-6-oxo-2-pteridinyl]amino]-3-methoxy-benzamide of formula (I) is highly soluble (>10 mg/ml) in propylenglycol, glycofurol, Cremophor RH40 (30% aqueous solution), Poloxamer 188 (20% aqueous solution), Solutol HS 15 (20% aqueous solution) as well as HP-β-cyclodextrin (20%-, 10%-, 5%-aqueous solutions). • Solid state properties of an hydrated form of the trihydrochloride salt of N-[trans-4-[4-(cyclopropylmethyl)-1-piperazinyl]cyclohexyl]-4-[[(7R)-7-ethyl-5,6,7,8-tetrahydro-5-methyl-8-(1-methylethyl)-6-oxo-2-pteridinyl]amino]-3-methoxy-benzamide. • Appearance

With `CC[C@@H]1C(=O)N(C)c2cnc(Nc3ccc(C(=O)N[C@H]4CC[C@H](N5CCN(CC6CC6)CC5)CC4)cc3OC)nc2N1C(C)C.Cl` [N-[trans-4-[4-(cyclopropylmethyl)-1-piperazinyl]cyclohexyl]-4-[[(7R)-7-ethyl-5,6,7,8-tetrahydro-5-methyl-8-(1-methylethyl)-6-oxo-2-pteridinyl]amino]-3-methoxy-benzamide], the “stability under ambient conditions compared to the anhydrous form” value in data set [1] (ambient conditions) was “advantage of stability under ambient conditions”. The “weight loss on lowering the humidity” value in data set [1] (humidity down to 10% r.h.) is reported as “does not result in a significant weight loss”. For the same molecule, the “decomposition or impurities (Σ)” value in data set [2] (24 hours at 105° C., 72 hours at 70° C. and >90% rel. humid., or 24 hours in a Xenotester (λ=300-800 nm, 250 W·m^−2)) is on record as under 2.4%. Further, the “stability in the solid state” value in data set [2] (harsh stress conditions (105° C. 24 h; 70° C./>90% rel. humid. 72 h; Xenotester 24 h)) is listed as “very stable in the solid state”. Further, in data set [3], the “solubility in physiologically acceptable solvents” value is reported as “readily soluble in physiologically acceptable solvents”. Besides, in data set [3] (conclusion from Table I), the “pH dependent solubility profile in aqueous media” value is “high solubility in acidic and neutral media and strongly reduced solubility in basic media”. The solubility in data set [3] (pH 2.2, aqueous buffer) was over 10000 µg/mL; in data set [3] (pH 3, aqueous buffer), 6200 µg/mL; in data set [3] (pH 4, aqueous buffer), 7200 µg/mL; in data set [3] (pH 5, aqueous buffer), 7200 µg/mL; in data set [3] (pH 6, aqueous buffer), 7100 µg/mL; in data set [3] (pH 7.4, aqueous buffer), 7800 µg/mL. In addition, the solubility in data set [3] (simulated gastric fluid), in data set [3] (water), in data set [4], in data set [4] (aqueous with cosolvent or surfactant or cyclodextrin) and in data set [4] (organic solvent or mixture) was over 10000 µg/mL each time.

Take `CC[C@@H]1C(=O)N(C)c2cnc(Nc3ccc(C(=O)N[C@H]4CC[C@H](N5CCN(CC6CC6)CC5)CC4)cc3OC)nc2N1C(C)C.Cl` [anhydrous form, N-[trans-4-[4-(cyclopropylmethyl)-1-piperazinyl]cyclohexyl]-4-[[(7R)-7-ethyl-5,6,7,8-tetrahydro-5-methyl-8-(1-methylethyl)-6-oxo-2-pteridinyl]amino]-3-methoxy-benzamide]: in data set [1] (obtained by heating a sample up to 140° C.), the “stability of the anhydrous form” value is listed as “not stable”.

As to `CC[C@@H]1C(=O)N(C)c2cnc(Nc3ccc(C(=O)N[C@H]4CC[C@H](N5CCN(CC6CC6)CC5)CC4)cc3OC)nc2N1C(C)C.Cl` [trihydrochloride salt, N-[trans-4-[4-(cyclopropylmethyl)-1-piperazinyl]cyclohexyl]-4-[[(7R)-7-ethyl-5,6,7,8-tetrahydro-5-methyl-8-(1-methylethyl)-6-oxo-2-pteridinyl]amino]-3-methoxy-benzamide], the “solubility in water compared to the free base” value in data set [3] is reported as “much more soluble than the free base”.

As a reminder, the solubility is the concentration that dissolves in the medium under given conditions.
